Data set [1] addresses full-length recombinant MrkA protein (Klebsiella pneumoniae, UniProt P12267). It counts as binding. Conditions: for affinities to MrkA: ELISA, stated as 'likely'; for binding to full-length MrkA compared to cy(LLFFF): sandwich ELISA, alanine scan and analogues. The text has this: HPraGly is present before X1 in each peptide and Az4 follows X5 in each peptide.
On the technique in general: In an ELISA, binding on a coated surface is turned into a signal by an enzyme label.

Data set [2] is described as follows: Isocratic point, elution from C18 prep-scale column. It counts as physicochemical. The following applies: elution from C18 column. As to the method: PCC compounds were purified on a Waters Autopurification system, which isolated compounds based on MS peaks corresponding to protonated [M+1H]^+ and [M+2H]^2+, and/or sodium adducts [M+Na]^+ and [M+2Na]^2+. The isocratic points of PCCs were determined based on the elution of the compound from a C18 prep-scale column. Synthetic epitopes were either purified on the Waters Autopurification System, or by semi-preparative HPLC and then using matrix-assisted laser desorption/ionization mass spectroscopy to identify fractions with the desired m/z ratio. The resulting peptides were lyophilized, the yield determined by mass difference or UV-visible absorbance, and resuspended at a concentration of up to 10 mM peptide in DMSO. Peptides were stored at −80° C. before thawing for each use.

Read-outs that look alike come from different tables or passages of the source. Bridge positions count the residues as written; N and C are the ends. Square brackets hold non-standard residues; d marks the D form. Triazole bridges read from a SMILES are 1,4-linked. Peptide text beside a SMILES is read from it. * marks the point of attachment. Biotin = O=C1N[C@H]2[C@H](CS[C@H]2CCCCC(=O)*)N1; PEG10 = NCCOCCOCCOCCOCCOCCOCCOCCOCCOCCOCCC(=O)O; Lys(N3) = [N-]=[N+]=NCCCC[C@H](N)C(=O)O; PEG5 = NCCOCCOCCOCCOCCOCCC(=O)O; Pra = C#CC[C@H](N)C(=O)O

As to `CC(C)C[C@@H]1NC(=O)[C@@H](NC(=O)CCOCCOCCOCCOCCOCCOCCOCCOCCOCCOCCNC(=O)CCCC[C@@H]2SC[C@@H]3NC(=O)N[C@@H]32)Cc2cn(nn2)CCCC[C@@H](C(N)=O)NC(=O)[C@H](Cc2ccccc2)NC(=O)[C@H](Cc2ccccc2)NC(=O)[C@H](Cc2ccccc2)NC(=O)[C@H](CC(C)C)NC1=O` [Ref. compound] ({Biotin-PEG10}-[Pra]LLFFF[Lys(N3)]-NH2; triazole 1-7), the “Relative affinity (ratio of ELISA signal versus cy(LLFFF))” value was found to be 1.00 in data set [1] (ELISA 1, [MrkA] for ELISA N/A); 1.00 in data set [1] (ELISA 2, [MrkA] 25 nM); 1.00 in data set [1] (ELISA 3, [MrkA] 50 nM); 1.00 in data set [1] (ELISA 4, [MrkA] 100 nM); 1.00 in data set [1] (ELISA 5, [MrkA] 25 nM); 1.00 in data set [1] (ELISA 6, [MrkA] 25 nM). In addition, the results for the “Isocratic point (%)” value in data set [2] (N-terminal tag Bio-Peg10-peg10-), in data set [2] (N-terminal tag Bio-peg5-) and in data set [2] (N-terminal tag Bio-peg10-) were 74.53%, 78.85% and 75.88%, respectively.
`CC(C)C[C@@H]1NC(=O)[C@H](C)NC(=O)[C@@H](NC(=O)CCOCCOCCOCCOCCOCCOCCOCCOCCOCCOCCNC(=O)CCCC[C@@H]2SC[C@@H]3NC(=O)N[C@@H]32)Cc2cn(nn2)CCCC[C@@H](C(N)=O)NC(=O)[C@H](Cc2ccccc2)NC(=O)[C@H](Cc2ccccc2)NC(=O)[C@H](Cc2ccccc2)NC1=O` [compound 2] ({Biotin-PEG10}-[Pra]ALFFF[Lys(N3)]-NH2; triazole 1-7): the “Relative affinity (ratio of ELISA signal versus cy(LLFFF))” value in data set [1] (ELISA 2, [MrkA] 25 nM) was found to be 0.53. For the same compound, the “Isocratic point (%)” value in data set [2] was 65.55%.
In the same order, the values of `CC(C)C[C@@H]1NC(=O)[C@@H](NC(=O)CCOCCOCCOCCOCCOCCOCCOCCOCCOCCOCCNC(=O)CCCC[C@@H]2SC[C@@H]3NC(=O)N[C@@H]32)Cc2cn(nn2)CCCC[C@@H](C(N)=O)NC(=O)[C@H](Cc2ccccc2)NC(=O)[C@H](Cc2ccccc2)NC(=O)[C@H](Cc2ccccc2)NC(=O)[C@H](C)NC1=O` [compound 3] ({Biotin-PEG10}-[Pra]LAFFF[Lys(N3)]-NH2; triazole 1-7) are 0.26 and 66.00%.
For `CC(C)C[C@@H]1NC(=O)[C@H](CCCNC(=N)N)NC(=O)[C@H](Cc2c[nH]cn2)NC(=O)[C@H](C(C)C)NC(=O)CNC(=O)[C@@H](NC(=O)CCOCCOCCOCCOCCOCCNC(=O)CCCC[C@@H]2SC[C@@H]3NC(=O)N[C@@H]32)Cc2cn(nn2)CCCC[C@@H](C(N)=O)NC1=O` [cy(GVHRL)] ({Biotin-PEG5}-[Pra]GVHRL[Lys(N3)]-NH2; triazole 1-7), in data set [1], the “affinities to MrkA” value was ~1 µM and the “binding to full-length MrkA compared to cy(LLFFF)” value (shortened to “binding … compared to cy(LLFFF)”) is “lower affinities”.
Consider `C[C@@H](O)[C@@H]1NC(=O)[C@@H](NC(=O)CCOCCOCCOCCOCCOCCNC(=O)CCCC[C@@H]2SC[C@@H]3NC(=O)N[C@@H]32)Cc2cn(nn2)CCCC[C@@H](C(N)=O)NC(=O)[C@H](Cc2ccccc2)NC(=O)[C@H](Cc2ccccc2)NC(=O)[C@H](Cc2ccccc2)NC(=O)[C@H]([C@@H](C)O)NC1=O` [cy(TTFFF)] ({Biotin-PEG5}-[Pra]TTFFF[Lys(N3)]-NH2; triazole 1-7; N-terminus assumed), for which, in data set [1], the “affinities to MrkA” value is ~1 µM and the “binding … compared to cy(LLFFF)” value is given as “lower affinities”.
In the same order, the values of `CC(C)C[C@@H]1NC(=O)[C@H](Cc2c[nH]cn2)NC(=O)[C@H](CCCNC(=N)N)NC(=O)[C@H](Cc2ccc(O)cc2)NC(=O)[C@@H](NC(=O)CCOCCOCCOCCOCCOCCNC(=O)CCCC[C@@H]2SC[C@@H]3NC(=O)N[C@@H]32)Cc2cn(nn2)CCCC[C@@H](C(N)=O)NC(=O)CNC1=O` [cy(YRHLG)] ({Biotin-PEG5}-[Pra]YRHLG[Lys(N3)]-NH2; triazole 1-7) are ~1 µM and “lower affinities”.
As for cy(ALFFF) (cyclic), in data set [1], the “binding … compared to cy(LLFFF)” value was “Modestly lower binding”.
The same measure, in the same setting: next, cy(LAFFF) (cyclic): “Modestly lower binding”; cy(LLAFF) (cyclic): “Modestly lower binding”.

Values taken from patent US12201679B2, “Epitope-targeted peptide immunostimulants” (priority 2019, dated 2025).
